Experimental data as given in US20050169908A1, “Use of aerosolized antithrombin to treat acute lung injury” (priority 2004, published 2005).

Key:
[1] = system: smoke inhalation injury followed by pneumonia; assay: Plasma nitrate/nitrite (NOx) levels; type: in vivo, sheep; conditions: over 24 h; vs saline-treated group (FIG. 6)
Source text: (§1) The Animal Care and Use Committee of The University of Texas Medical Branch approved the experiments reported in this manuscript. All animals were handled within the guidelines established by the American Physiological Society and the National Institutes of Health. Twenty four female sheep were surgically prepared for study under halothane anesthesia as previously described (9). After measurement of baseline cardiovascular data, sheep received a combination injury of smoke inhalation and bacteria instillation as previously described (3).
(§2) Briefly, P. aeruginosa (5×10^9/kg) was instilled intrabronchially after the cotton smoke exposure (4 sets of 12 breaths, <40° C.). After the smoke inhalation and bacterial instillation, animals were randomly assigned for the […] treatment groups, ATIII nebulization group (n=6), argatroban-nebulization group (n=8), and saline nebulization control group (n=10). All animals were mechanically ventilated with 100% oxygen throughout the 24-h study (Tidal volume 12-15 ml/kg, 30 breaths/min, PEEP 7.5 cmH2O). Tidal volume was adjusted to maintain PaCO2 normal. The Ringer's lactate solution was injected in sufficient volume to prevent the hematocrit from rising. […]
The concentration of NOx (total amount of nitric oxide metabolites) in plasma was measured with a chemiluminescent NO analyser (Antek, model 7020) as previously described (11).

P. aeruginosa = assay: Arterial blood culture for bacteremia; type: in vivo, sheep; conditions: during the 24 h study; no statistical difference from saline-treated group
Source text: as §1
as §2, with “rising. Initially, 2 ml/kg/h of Ringer's lactate was infused, and we adjusted the in rate up to 10 ml/kg/h based on the hematocrit levels.” for “rising.”

[2] = system: smoke inhalation injury followed by pneumonia; assay: Lung histopathology scores 24 h after smoke and bacterial challenge; type: in vivo, sheep; conditions: vs saline control
Source text: as §1
(§3) Briefly, P. aeruginosa (5×10^9/kg) was instilled intrabronchially after the cotton smoke exposure (4 sets of 12 breaths, <40° C.). After the smoke inhalation and bacterial instillation, animals were randomly assigned for the two treatment groups, ATIII nebulization group (n=6), argatroban-nebulization group (n=8), and saline nebulization control group (n=10). All animals were mechanically ventilated with 100% oxygen throughout the 24-h study (Tidal volume 12-15 ml/kg, 30 breaths/min, PEEP 7.5 cmH2O). Tidal volume was adjusted to maintain PaCO2 normal. The Ringer's lactate solution was injected in sufficient volume to prevent the hematocrit from rising. Initially, 2 ml/kg/h of Ringer's lactate was infused, and we adjusted the in rate up to 10 ml/kg/h based on the hematocrit levels.
Recombinant human antithrombin (rhAT) was dissolved in distilled water (250 mg/30 mL). Then, the ATIII solution was mixed with 60 mL saline and 15 mL of the mixed solution containing 41.7 mg ATIII was nebulized every 4 hrs. […] The control group received 15 ml saline nebulization as the same fashion. […]
(§4) A lung slice from the right lower lobe was histologically scored by a pathologist who was unaware of animal grouping (5). […] Airway obstruction by cast formation was also evaluated as previously described (3).
(§5) The statistical software StatView 5.0 (SAS Institute, Cary, N.C.) was used to perform the analysis. Data are expressed as means±SEM. Repeated measured analysis of variance (ANOVA) or ANOVA with Tuckey's post hoc test was used to compare data among the groups. […]

[3] = system: smoke inhalation injury followed by pneumonia; assay: Microscopic evaluation of airway obstruction by cast formation; type: in vivo, sheep
Source text: as §1, §3
Recombinant human antithrombin (rhAT) was dissolved in distilled water (250 mg/30 mL). Then, the ATIII solution was mixed with 60 mL saline and 15 mL of the mixed solution containing 41.7 mg ATIII was nebulized every 4 hrs. […] The control group received 15 ml saline nebulization as the same fashion. The solutions were nebulized by an ultrasonic nebulizer (Ultra-Neb99, DeVilbiss Co., Somerset, Pa.), which was connected to the tracheobronchial tree as shown previously (10). The size of the particles obtained by the nebulizer is reported less than 4 microns. […]
as §4

[4] = system: smoke inhalation injury followed by pneumonia; assay: Pulmonary gas exchange (PaO2/FiO2 ratio, pulmonary shunt fraction) after smoke inhalation and pneumonia in sheep; type: in vivo; conditions: nebulized every 4 hrs, 24-h study; vs saline-treated group (FIG. 1B)
Protocol: Recombinantly produced ATIII was dissolved in saline (42 mg/ml). Female sheep (n=24) were used. After the 48 breaths of cotton smoke (<40° C.), P. aeruginosa (5×10^11 CFU) was instilled in the both lungs. All the animals were mechanically ventilated by 100% O2 (Tidal volume 15 ml/kg, 30 breaths/min, PEEP 5 cmH2O). […] No animals died during the study.
as §1
Briefly, P. aeruginosa (5×10^9/kg) was instilled intrabronchially after the cotton smoke exposure (4 sets of 12 breaths, <40° C.). […]
as §5

[5] = Blood counts (WBC, platelets) after injury; type: in vivo, sheep
Source text: as §1, §3
Recombinant human antithrombin (rhAT) was dissolved in distilled water (250 mg/30 mL). Then, the ATIII solution was mixed with 60 mL saline and 15 mL of the mixed solution containing 41.7 mg ATIII was nebulized every 4 hrs. […] The control group received 15 ml saline nebulization as the same fashion. The solutions were nebulized by an ultrasonic nebulizer (Ultra-Neb99, DeVilbiss Co., Somerset, Pa.), which was connected to the tracheobronchial tree as shown previously (10). The size of the particles obtained by the nebulizer is reported less than 4 microns. The nebulization was started one hour after the insult and every 4 hrs thereafter.
Arterial blood was cultured to test the bacteremia (Septi-check, Becton Dickinson, Sparks, Md.). Heparinized blood samples were carefully withdrawn from the femoral artery catheter at baseline and at 3, 6, 12, and 24 hrs.

[6] = 24 h, vs saline treated group (FIG. 4)

Question: Which “increase in plasma NOx levels” value [1] does the source give for `CC1CNc2c(cccc2S(=O)(=O)N[C@@H](CCCNC(=N)N)C(=O)N2CC[C@@H](C)C[C@@H]2C(=O)O)C1` (stereo partly shown) [Argatroban] here?
Answer: not a statistical difference

Question: What about the “animals with P. aeruginosa detected in arterial blood culture” value (P. aeruginosa) of the same compound?
Answer: 0%

Question: What about the hemorrhage score [2] of the same compound?
Answer: not higher but less

Question: What about the “individual histology scores in congestion, edema, inflammation, and hemorrhage (scale 0-4)” value [2] of the same compound?
Answer: almost the same scores as saline control

Question: And the “total histology score (maximum 16)” value [2]?
Answer: did not attenuate

Question: And the “airway obstruction in bronchi levels” value [3, 6]?
Answer: inhibited the obstruction significantly

Question: What about the “airway obstruction in bronchiole levels” value [3, 6] of the same compound?
Answer: inhibited the obstruction significantly

Question: What about the “prevention of cast formation (airway obstruction), comparison of the two agents” value ([3]; argatroban vs rhAT) of the same compound?
Answer: more effective in preventing cast formation than rhAT

Question: And the “increase in pulmonary shunt fraction after the insult” value [4]?
Answer: significantly less

Question: What about the Platelets ([5]; 24 hrs after injury, Mean ± SE) of the same compound?
Answer: 297 ± 78 ×10^3/μL

Question: What about the WBC ([5]; 24 hrs after injury, Mean ± SE) of the same compound?
Answer: 2.08 ± 0.81 ×10^3/μl

Question: What about the “decrease in leukocyte number 24 h after the injury” value ([5]; in words, Table 1) of the same compound?
Answer: did not affect

Question: What about the “decrease in platelet count after the injury” value ([5]; in words, Table 1) of the same compound?
Answer: slightly prevented
